The target of the experiment is DPP-IV enzyme (Homo sapiens, UniProt P27487). As to the kind of experiment: Assay for determining DPP-IV inhibitory activity (DPP-IV-Glo luminescence).

The structures appear in SMILES notation. Structures can show the parent of a compound that is named as a salt.

Sequence of DPP-IV enzyme (P27487 whole entry): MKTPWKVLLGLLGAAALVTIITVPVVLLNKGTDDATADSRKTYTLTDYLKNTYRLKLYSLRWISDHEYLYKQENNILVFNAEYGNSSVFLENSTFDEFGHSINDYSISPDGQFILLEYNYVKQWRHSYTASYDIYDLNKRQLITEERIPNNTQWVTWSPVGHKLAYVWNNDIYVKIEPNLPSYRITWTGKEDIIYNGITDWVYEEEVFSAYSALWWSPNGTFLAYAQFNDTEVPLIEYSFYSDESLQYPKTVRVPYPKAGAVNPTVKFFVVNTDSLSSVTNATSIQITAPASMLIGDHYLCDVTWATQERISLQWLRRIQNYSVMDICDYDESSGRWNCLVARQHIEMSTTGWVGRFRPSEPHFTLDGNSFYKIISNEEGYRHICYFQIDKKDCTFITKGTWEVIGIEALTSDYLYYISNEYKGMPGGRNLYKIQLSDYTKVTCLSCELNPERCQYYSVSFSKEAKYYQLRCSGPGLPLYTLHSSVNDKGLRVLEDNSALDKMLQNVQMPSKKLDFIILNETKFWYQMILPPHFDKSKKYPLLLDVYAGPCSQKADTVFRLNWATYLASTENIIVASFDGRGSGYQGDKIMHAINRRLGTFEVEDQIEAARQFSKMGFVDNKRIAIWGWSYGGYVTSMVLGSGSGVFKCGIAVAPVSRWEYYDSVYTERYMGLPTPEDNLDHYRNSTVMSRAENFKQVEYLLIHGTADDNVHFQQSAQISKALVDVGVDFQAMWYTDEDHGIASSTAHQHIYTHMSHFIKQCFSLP
Description: IC50 was determined by a NovoStar ELIASA (BMG Co. German);
The definition of inhibitory rate: [1−(S−B)/(N−B)]*100%

For `CS(=O)(=O)CCNC(=O)c1nc(C(F)(F)F)n2c1CN(C(=O)C[C@H](N)Cc1cc(F)c(F)cc1F)CC2` [Example 2, (R)-7-[3-Amino-4-(2,4,5-trifluoro-phenyl)-butyryl]-3-trifluoromethyl-5,6,7,8-tetrahydro-imidazo[1,5-a]pyrazine-1-carboxylic acid (2-methanesulfonyl-ethyl)-amide hydrochloride], the IC50 (in general, the concentration at which inhibition is half-maximal) amounted to 0.008 µM.
The result for `N[C@@H](CC(=O)N1CCn2c(C(F)(F)F)nc(C(=O)N3CCOCC3)c2C1)Cc1cc(F)c(F)cc1F` [Example 3, (R)-3-Amino-1-[1-(morpholine-4-carbonyl)-3-trifluoromethyl-5,6-dihydro-8H-imidazo[1,5-a]pyrazin-7-yl]-4-(2,4,5-trifluoro-phenyl)-butan-1-one hydrochloride] reads 0.089 µM; that for `N#CCNC(=O)c1nc(C(F)(F)F)n2c1CN(C(=O)C[C@H](N)Cc1cc(F)c(F)cc1F)CC2` [Example 4, (R)-7-[3-Amino-4-(2,4,5-trifluoro-phenyl)-butyryl]-3-trifluoromethyl-5,6,7,8-tetrahydro-imidazo[1,5-a]pyrazine-1-carboxylic acid cyanomethyl-amide hydrochloride], 0.022 µM; that for `CN1CCN(C(=O)c2nc(C(F)(F)F)n3c2CN(C(=O)C[C@H](N)Cc2cc(F)c(F)cc2F)CC3)CC1` [Example 5, (R)-3-Amino-1-[1-(4-methyl-piperazine-1-carbonyl)-3-trifluoromethyl-5,6-dihydro-8H-imidazo[1,5-a]pyrazin-7-yl]-4-(2,4,5-trifluoro-phenyl)-butan-1-one dihydrochloride], 0.027 µM.
The result for `N[C@@H](CC(=O)N1CCn2c(C(F)(F)F)nc(C(=O)N3CCS(=O)(=O)CC3)c2C1)Cc1cc(F)c(F)cc1F` [Example 6, (R)-3-Amino-1-[1-(1,1-dioxo-thiomorpholine-4-carbonyl)-3-trifluoromethyl-5,6-dihydro-8H-imidazo[1,5-a]pyrazin-7-yl]-4-(2,4,5-trifluoro-phenyl)-butan-1-one hydrochloride] reads 0.031 µM; that for `NC(=O)C1CCN(C(=O)c2nc(C(F)(F)F)n3c2CN(C(=O)C[C@H](N)Cc2cc(F)c(F)cc2F)CC3)CC1` [Example 7, (R)-1-{7-[3-Amino-4-(2,4,5-trifluoro-phenyl)-butyryl]-3-trifluoromethyl-5,6,7,8-tetrahydro-imidazo[1,5-a]pyrazine-1-carbonyl}-piperidine-4-carboxylic acid amide hydrochloride], 0.025 µM; that for `CNC(=O)c1nc(C(F)(F)F)n2c1CN(C(=O)C[C@H](N)Cc1cc(F)c(F)cc1F)CC2` [Example 8, (R)-7-[3-Amino-4-(2,4,5-trifluoro-phenyl)-butyryl]-3-trifluoromethyl-5,6,7,8-tetrahydro-imidazo[1,5-a]pyrazine-1-carboxylic acid methylamide hydrochloride], 0.008 µM.
The result for `CN(C)C(=O)c1nc(C(F)(F)F)n2c1CN(C(=O)C[C@H](N)Cc1cc(F)c(F)cc1F)CC2` [Example 9, (R)-7-[3-Amino-4-(2,4,5-trifluoro-phenyl)-butyryl]-3-trifluoromethyl-5,6,7,8-tetrahydro-imidazo[1,5-a]pyrazine-1-carboxylic acid dimethylamide hydrochloride] reads 0.075 µM; that for `N[C@@H](CC(=O)N1CCn2c(C(F)(F)F)nc(C(=O)O)c2C1)Cc1cc(F)c(F)cc1F` [Example 10, (R)-7-[3-Amino-4-(2,4,5-trifluoro-phenyl)-butyryl]-3-trifluoromethyl-5,6,7,8-tetrahydro-imidazo[1,5-a]pyrazine-1-carboxylic acid hydrochloride], 0.021 µM; that for `N[C@@H]1CCCN(C(=O)c2nc(C(F)(F)F)n3c2CN(C(=O)C[C@H](N)Cc2cc(F)c(F)cc2F)CC3)C1` [Example 11, (R)-3-Amino-1-[1-(3-amino-piperidine-1-carbonyl)-3-trifluoromethyl-5,6-dihydro-8H-imidazo[1,5-a]pyrazin-7-yl]-4-(2,4,5-trifluoro-phenyl)-butan-1-one dihydrochloride], 0.216 µM.
As for `N[C@@H](CC(=O)N1CCn2c(C(F)(F)F)nc(C(=O)N3CCCC3)c2C1)Cc1cc(F)c(F)cc1F` [Example 12, (R)-3-Amino-1-[1-(pyrrolidine-1-carbonyl)-3-trifluoromethyl-5,6-dihydro-8H-imidazo[1,5-a]pyrazin-7-yl]-4-(2,4,5-trifluoro-phenyl)-butan-1-one hydrochloride], the IC50 turned out to be 0.059 µM.
Regarding `N[C@@H](CC(=O)N1CCn2c(C(F)(F)F)nc(C(=O)N3CCNCC3)c2C1)Cc1cc(F)c(F)cc1F` [Example 13, (R)-3-Amino-1-[1-(piperazine-1-carbonyl)-3-trifluoromethyl-5,6-dihydro-8H-imidazo[1,5-a]pyrazin-7-yl]-4-(2,4,5-trifluoro-phenyl)-butan-1-one dihydrochloride], the IC50 is 0.041 µM.
For the molecule `N[C@@H](CC(=O)N1CCn2c(C(F)(F)F)nc(C(=O)N3CC[C@@H](O)C3)c2C1)Cc1cc(F)c(F)cc1F` [Example 14, (R)-3-Amino-1-[1-((R)-3-hydroxy-pyrrolidine-1-carbonyl)-3-trifluoromethyl-5,6-dihydro-8H-imidazo[1,5-a]pyrazin-7-yl]-4-(2,4,5-trifluoro-phenyl)-butan-1-one hydrochloride], it took 0.047 µM to reach half-maximal inhibition (IC50).
`N[C@@H](CC(=O)N1CCn2c(C(F)(F)F)nc(C(=O)NC3CC3)c2C1)Cc1cc(F)c(F)cc1F` [Example 15, (R)-7-[3-Amino-4-(2,4,5-trifluoro-phenyl)-butyryl]-3-trifluoromethyl-5,6,7,8-tetrahydro-imidazo[1,5-a]pyrazine-1-carboxylic acid cyclopropylamide hydrochloride] registered an IC50 of 0.025 µM.
Turning to `CCOC(=O)c1nc(C(F)(F)F)n2c1CN(C(=O)C[C@H](N)Cc1cc(F)c(F)cc1F)CC2` [Example 23, (R)-7-[3-Amino-4-(2,4,5-trifluoro-phenyl)-butyryl]-3-trifluoromethyl-5,6,7,8-tetrahydro-imidazo[1,5-a]pyrazine-1-carboxylic acid ethyl ester hydrochloride], the IC50 was determined as 0.031 µM.
Molecule `CCOC(=O)OC(C)OC(=O)c1nc(C(F)(F)F)n2c1CN(C(=O)C[C@H](N)Cc1cc(F)c(F)cc1F)CC2` (stereo partly drawn) [Example 34, (R)-7-[3-Amino-4-(2,4,5-trifluoro-phenyl)-butyryl]-3-trifluoromethyl-5,6,7,8-tetrahydro-imidazo[1,5-a]pyrazine-1-carboxylic acid (1-ethoxycarbonyloxy)-ethyl ester hydrochloride] displayed an IC50 of 0.031 µM.
`CC(C)(C)OC(=O)c1nc(C(F)(F)F)n2c1CN(C(=O)C[C@H](N)Cc1cc(F)c(F)cc1F)CC2` [Example 36, (R)-7-[3-Amino-4-(2,4,5-trifluoro-phenyl)-butyryl]-3-trifluoromethyl-5,6,7,8-tetrahydro-imidazo[1,5-a]pyrazine-1-carboxylic acid tert-butyl ester hydrochloride] had an IC50 of 0.221 µM.
Then `CC(C)OC(=O)OC(C)OC(=O)c1nc(C(F)(F)F)n2c1CN(C(=O)C[C@H](N)Cc1cc(F)c(F)cc1F)CC2` (stereo partly drawn) [Example 37, (R)-7-[3-Amino-4-(2,4,5-trifluoro-phenyl)-butyryl]-3-trifluoromethyl-5,6,7,8-tetrahydro-imidazo[1,5-a]pyrazine-1-carboxylic acid 1-isopropoxycarbonyloxy-ethyl ester hydrochloride], with 0.033 µM.
Turning to `CC(OC(=O)OC1CCCCC1)OC(=O)c1nc(C(F)(F)F)n2c1CN(C(=O)C[C@H](N)Cc1cc(F)c(F)cc1F)CC2` (stereo partly drawn) [Example 38, (R)-7-[3-Amino-4-(2,4,5-trifluoro-phenyl)-butyryl]-3-trifluoromethyl-5,6,7,8-tetrahydro-imidazo[1,5-a]pyrazine-1-carboxylic acid (1-cyclohexyloxycarbonyloxy)-ethyl ester hydrochloride], the IC50 was 0.184 µM.
The molecule `COC(=O)c1nc(C(F)(F)F)n2c1C(C)N(C(=O)C[C@H](N)Cc1cc(F)c(F)cc1F)CC2` (stereo partly drawn) [Example 39, (R)-7-[3-Amino-4-(2,4,5-trifluoro-phenyl)-butyryl]-8-methyl-3-trifluoromethyl-5,6,7,8-tetrahydro-imidazo[1,5-a]pyrazine-1-carboxylic acid methyl ester hydrochloride] showed a half-inhibitory concentration (IC50) of 0.016 µM.
In turn, `COC(=O)c1nc(C(F)(F)F)n2c1[C@H](C)N(C(=O)C[C@H](N)Cc1cc(F)c(F)cc1F)CC2` [Example 40, (R)-7-[3-Amino-4-(2,4,5-trifluoro-phenyl)-butyryl]-(S)-8-methyl-3-trifluoromethyl-5,6,7,8-tetrahydro-imidazo[1,5-a]pyrazine-1-carboxylic acid methyl ester hydrochloride] registered a half-maximal inhibitory concentration (IC50) of 0.314 µM.
Molecule `COC(=O)c1nc(C(F)(F)F)n2c1[C@@H](C)N(C(=O)C[C@H](N)Cc1cc(F)c(F)cc1F)CC2` [Example 41, (R)-7-[3-Amino-4-(2,4,5-trifluoro-phenyl)-butyryl]-(R)-8-methyl-3-trifluoromethyl-5,6,7,8-tetrahydro-imidazo[1,5-a]pyrazine-1-carboxylic acid methyl ester hydrochloride] returned an IC50 of 0.005 µM.
Then `CCNC(=O)c1nc(C(F)(F)F)n2c1CN(C(=O)C[C@H](N)Cc1cc(F)c(F)cc1F)CC2` [Example 42, (R)-7-[3-Amino-4-(2,4,5-trifluoro-phenyl)-butyryl]-3-trifluoromethyl-5,6,7,8-tetrahydro-imidazo[1,5-a]pyrazine-1-carboxylic acid ethylamide], with 0.018 µM.
`CCCCNC(=O)c1nc(C(F)(F)F)n2c1CN(C(=O)C[C@H](N)Cc1cc(F)c(F)cc1F)CC2` [Example 43, (R)-7-[3-Amino-4-(2,4,5-trifluoro-phenyl)-butyryl]-3-trifluoromethyl-5,6,7,8-tetrahydro-imidazo[1,5-a]pyrazine-1-carboxylic acid butylamide]: the IC50 was 0.063 µM.
The molecule `CCCNC(=O)c1nc(C(F)(F)F)n2c1CN(C(=O)C[C@H](N)Cc1cc(F)c(F)cc1F)CC2` [Example 44, (R)-7-[3-Amino-4-(2,4,5-trifluoro-phenyl)-butyryl]-3-trifluoromethyl-5,6,7,8-tetrahydro-imidazo[1,5-a]pyrazine-1-carboxylic acid propylamide] came in with an IC50 of 0.052 µM.

The values are drawn from patent US8513411B2, “Tetrahydro-imidazo[1,5-α] pyrazine derivatives, preparation process and medicinal use thereof” (Jiangsu Hengrui Medicine Co., Ltd., priority 2007, dated 2013).
